# Results taken from patent publication US20160106439A1, “PNEUMATIC TOURNIQUET” (BIONUMERIK PHARMACEUTICALS, INC., priority 2013, published 2016).
# Read-outs that look alike come from different tables or passages of the source.
# Columns and labels:
# thioredoxin = biological target: T1, thioredoxin (Homo sapiens, UniProt P10599); test: LC-MS of thioredoxin incubations; type: binding; conditions: ion at m/z 1288.3
# T1 construct: purchased Sigma (SigmaAldrich); host or cells: E. coli
# [1] = biological target: T2, Mesenchymal Epithelial Transition (MET) Factor Kinase (Homo sapiens, UniProt P08581); test: MET kinase inhibition (summary Table 27); type: biochemical; conditions: modification of non-active site cysteine(s)
# T2 construct: the kinase domain of MET (residues 956-end) was used in these experiments; purchased SignalChem M52-18G-10; host or cells: Sf9 insect cells
# [2] = system: human breast, ovarian and lymphoma cancer cell lines; test: Interference with paclitaxel induced apoptosis (PARP cleavage, Bcl-2 phosphorylation, DNA laddering); type: cell-based
# Source text: (§1) Tavocept mediates the non-enzymatic xenobiotic modification of sulfur-containing amino acid residues (e.g., cysteine) on proteins. As an engineered, non-naturally occurring agent (i.e., xenobiotic), Tavocept is autocatalytic and requires no protein cofactor to cause the xenobiotic modification of cysteine, but appears to be specific for cysteine residues located within a particular structural context (i.e., not all cysteines in a protein are so modified). Tavocept-mediated, xenobiotic modification represents a novel mechanism of action for a cancer treating agent and can be compared to a degree with post-translational modifications of cysteine residues in proteins (see, Table 3, below).
# human cancer cell lines = test: Interference with paclitaxel- and platinum-induced cytotoxicity; type: cell-based
# Source text: as §1
# WT EGFR kinase = WT EGFR kinase (Homo sapiens, UniProt P00533); test: WT EGFR kinase assay (ADP-glo)
# [3] = biological target: T3, Recombinant human peroxiredoxin 1 (Homo sapiens, UniProt Q06830); test: Tavocept-derived mesna adducts on Prx 1 (digest, LC-MS); type: binding
# T3 construct: purchased SigmaAldrich
# T3 sequence (Q06830 1-199): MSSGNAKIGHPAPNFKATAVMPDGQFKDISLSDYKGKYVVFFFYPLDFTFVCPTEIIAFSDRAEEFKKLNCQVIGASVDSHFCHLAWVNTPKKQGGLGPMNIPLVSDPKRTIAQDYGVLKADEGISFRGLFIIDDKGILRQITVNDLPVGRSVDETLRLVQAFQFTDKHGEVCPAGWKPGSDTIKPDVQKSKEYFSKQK
# Description: Recombinant human peroxiredoxin 1 (purchased from SigmaAldrich; 333 μg; 0.015 micromoles) was reduced using an excess of dithiothreitol (DTT; 35 micromoles) in NH4HCO3 buffer (40 mM, pH 8.0) at 37° C. for 50 minutes (total reaction volume was 750 μL; final Prx concentration was 20 μM; and final DTT concentration was 46 mM). […] (total reaction volume was 500 μL). After 16-18 hours incubation, each reaction was removed and chromatographed using G25 Sephadex columns.
# In brief, the G25 chromatographed Prx1 incubation reactions were digested with Trypsin Gold. Trypsin Gold was dissolved in 400 μL of NH4HCO3 and 100 μL of acetonitrile. A 100-150 μL volume of this Trypsin Gold stock was then added to 500 μL of the aforementioned final sample with 75 μL of acetonitrile and then the reaction volume was adjusted to a total of 750 μL with NH4HCO3. The sample was incubated for 6 hours at 37° C. Chymotrypsin digests were by dissolving chymotrypsin in 1M HCL. A 50 μL volume of this chymotrypsin stock solution was added to added to 500 μL of the aforementioned final sample along with 10% (v/v) of CaCl2 (100 mM stock). NH4HCO3 buffer was then added to bring the total reaction volume to 750 μL. Chymotrypsin digests were incubated for 16 hours at 30° C. Following digest by either trypsin or chymotrypsin, reactions were lyophilized to dryness overnight and then resuspended in a minimal amount of HPLC grade water prior to LC MS analyses.
# A Symmetry C18 HPLC column (Waters, Franklin, Mass.; 3.5 μm; 4.6×75 mm) and a Waters Alliance liquid chromatography system (Waters 2695; Franklin, Mass.) coupled to a Micromass single quadropole mass detector (Micromass ZMD; Manchester, UK) were used to analyze fragments from trypsin or chymotrypsin digested human Prx1. The mobile phase contained 0.1% of formic acid throughout the run and the flow rate was 0.35 ml/min. […]
# [4] = biological target: T4, human glutaredoxin (Grx1) (Homo sapiens, UniProt P35754); test: Mass Spectroscopy of Grx-Tavocept reaction; type: binding; conditions: 40 mM Tavocept, 4° C. overnight
# T4 construct: 6xHis (TEV-cleavable) (N, cleaved yes); made in house; host or cells: E. coli BL21 (RIPL)
# [5] = read-out: inhibition of WT EGFR kinase activity
# WT EGFR kinase, sequence (P00533 25-1210): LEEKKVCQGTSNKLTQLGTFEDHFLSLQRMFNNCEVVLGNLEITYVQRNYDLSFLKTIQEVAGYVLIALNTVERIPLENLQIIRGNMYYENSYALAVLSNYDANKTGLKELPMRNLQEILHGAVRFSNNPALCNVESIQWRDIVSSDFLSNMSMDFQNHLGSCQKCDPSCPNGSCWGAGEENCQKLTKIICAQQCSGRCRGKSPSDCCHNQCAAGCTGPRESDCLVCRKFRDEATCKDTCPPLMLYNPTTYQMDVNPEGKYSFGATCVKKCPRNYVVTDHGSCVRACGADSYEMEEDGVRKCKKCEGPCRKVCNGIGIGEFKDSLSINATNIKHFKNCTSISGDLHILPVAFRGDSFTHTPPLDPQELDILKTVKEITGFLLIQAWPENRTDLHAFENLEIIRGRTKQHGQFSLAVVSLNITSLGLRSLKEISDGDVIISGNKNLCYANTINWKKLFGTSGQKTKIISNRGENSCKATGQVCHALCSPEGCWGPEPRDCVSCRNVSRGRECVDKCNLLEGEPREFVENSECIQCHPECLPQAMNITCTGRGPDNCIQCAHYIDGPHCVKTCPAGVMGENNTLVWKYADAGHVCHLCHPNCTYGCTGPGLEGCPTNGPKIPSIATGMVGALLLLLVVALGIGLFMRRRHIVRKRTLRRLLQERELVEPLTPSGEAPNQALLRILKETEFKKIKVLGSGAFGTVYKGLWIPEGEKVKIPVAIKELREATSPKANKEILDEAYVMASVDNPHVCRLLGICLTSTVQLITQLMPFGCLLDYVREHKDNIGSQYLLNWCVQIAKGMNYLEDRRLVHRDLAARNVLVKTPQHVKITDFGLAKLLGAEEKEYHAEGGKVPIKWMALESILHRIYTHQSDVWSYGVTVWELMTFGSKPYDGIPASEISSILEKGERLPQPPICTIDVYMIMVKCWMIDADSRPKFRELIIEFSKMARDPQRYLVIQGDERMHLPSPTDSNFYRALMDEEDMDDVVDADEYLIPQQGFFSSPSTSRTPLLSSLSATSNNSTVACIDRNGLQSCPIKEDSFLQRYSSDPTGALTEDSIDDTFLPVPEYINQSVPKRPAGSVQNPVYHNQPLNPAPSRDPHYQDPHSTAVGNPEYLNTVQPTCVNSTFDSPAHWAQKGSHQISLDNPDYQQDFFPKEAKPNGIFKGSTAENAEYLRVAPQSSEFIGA
# T4 sequence (P35754 whole entry): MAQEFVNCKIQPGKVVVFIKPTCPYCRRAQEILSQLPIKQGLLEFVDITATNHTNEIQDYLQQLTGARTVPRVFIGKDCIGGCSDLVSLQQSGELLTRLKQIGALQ
# T1 sequence (P10599 whole entry): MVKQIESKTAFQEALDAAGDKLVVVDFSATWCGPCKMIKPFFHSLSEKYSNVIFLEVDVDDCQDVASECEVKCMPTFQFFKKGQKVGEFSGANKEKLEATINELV
# T2 sequence (P08581 956-1390 limits assumed): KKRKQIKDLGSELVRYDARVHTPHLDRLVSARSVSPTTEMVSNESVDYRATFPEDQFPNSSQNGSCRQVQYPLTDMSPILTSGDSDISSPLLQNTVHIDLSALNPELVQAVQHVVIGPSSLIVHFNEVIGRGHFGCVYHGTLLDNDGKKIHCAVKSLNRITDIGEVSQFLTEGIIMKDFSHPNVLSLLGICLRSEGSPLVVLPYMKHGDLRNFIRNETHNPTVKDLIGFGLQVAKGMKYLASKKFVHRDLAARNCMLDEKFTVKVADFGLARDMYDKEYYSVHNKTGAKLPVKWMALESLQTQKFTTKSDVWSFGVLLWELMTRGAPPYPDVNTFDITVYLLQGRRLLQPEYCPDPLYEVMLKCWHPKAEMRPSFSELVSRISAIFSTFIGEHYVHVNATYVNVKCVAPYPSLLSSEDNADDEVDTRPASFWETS
structure (smiles),measurement,setting,value
"O=S(=O)([O-])CCSSCCS(=O)(=O)[O-].[Na+].[Na+] [Tavocept, disodium 2,2′-dithio-bis-ethane sulfonate]",mesna adduct on thioredoxin fragment CMPTFQFFK,thioredoxin,Cys73-mesna adduct
same,Effect on MET,[1],resulting in enzyme inhibition (MET).
same,interference with paclitaxel induced apoptosis,[2],does not interfere
same,interference with paclitaxel- and platinum-induced cytotoxicity,human cancer cell lines,not to interfere
same,potentiation of Erlotinib inhibition of WT EGFR kinase activity,WT EGFR kinase; 10 μM ATP,slightly potentiated
same,inhibition of WT EGFR kinase,"WT EGFR kinase; 100 μM ATP, physiological concentrations (<20 mM)",did not notably inhibit
same,IC50,"WT EGFR kinase; IC50 on WT EGFR kinase activity, 10 μM ATP",24.3 ± 3.7 mM
same,IC50,"WT EGFR kinase; IC50 on WT EGFR kinase activity, 100 μM ATP",≥ 40 mM
same,IC50,"WT EGFR kinase; read-out: IC50 on WT EGFR kinase activity, 10 μM ATP",24.3 mM
same,inhibition at 10000 µM,WT EGFR kinase; [5],39%
same,inhibition at 20000 µM,WT EGFR kinase; [5],44%
same,Tavocept-derived mesna Adduct detected?,[3]; chymotryptic fragment TDKHGEVCPAGW (Cys 173) of human Prx 1,Yes
same,Tavocept-derived mesna Adduct detected?,[3]; chymotryptic fragment VCPTEIIAF (Cys 52) of human Prx 1,Yes
same,Tavocept-derived mesna Adduct detected?,[3]; tryptic fragment HGEVCPAGWK (Cys 173) of human Prx 1,Yes
same,Tavocept-derived mesna adducts per molecule of Grx,[4],one to two
